According to US5670500A (priority 1995, dated 1997):

How the values were obtained:
[1] = test system: Colon 26; experiment: Efficacy in mouse tumor models: Colon Carcinoma 26; format: in vivo; conditions: Colon 26 mouse model
Experimental: (§1) The efficacy of the compounds of the present invention was also tested in vivo using three well-known mouse tumor models: L1210, Lewis Lung, and Colon Carcinoma 26.

[2] = in vivo; cited from earlier work
[3] = test system: topoisomerase II; conditions: cited from earlier work
[4] = target: T1, topoisomerase I (Homo sapiens, UniProt P11387); conditions: cited from earlier work
T1 sequence (P11387 1-765): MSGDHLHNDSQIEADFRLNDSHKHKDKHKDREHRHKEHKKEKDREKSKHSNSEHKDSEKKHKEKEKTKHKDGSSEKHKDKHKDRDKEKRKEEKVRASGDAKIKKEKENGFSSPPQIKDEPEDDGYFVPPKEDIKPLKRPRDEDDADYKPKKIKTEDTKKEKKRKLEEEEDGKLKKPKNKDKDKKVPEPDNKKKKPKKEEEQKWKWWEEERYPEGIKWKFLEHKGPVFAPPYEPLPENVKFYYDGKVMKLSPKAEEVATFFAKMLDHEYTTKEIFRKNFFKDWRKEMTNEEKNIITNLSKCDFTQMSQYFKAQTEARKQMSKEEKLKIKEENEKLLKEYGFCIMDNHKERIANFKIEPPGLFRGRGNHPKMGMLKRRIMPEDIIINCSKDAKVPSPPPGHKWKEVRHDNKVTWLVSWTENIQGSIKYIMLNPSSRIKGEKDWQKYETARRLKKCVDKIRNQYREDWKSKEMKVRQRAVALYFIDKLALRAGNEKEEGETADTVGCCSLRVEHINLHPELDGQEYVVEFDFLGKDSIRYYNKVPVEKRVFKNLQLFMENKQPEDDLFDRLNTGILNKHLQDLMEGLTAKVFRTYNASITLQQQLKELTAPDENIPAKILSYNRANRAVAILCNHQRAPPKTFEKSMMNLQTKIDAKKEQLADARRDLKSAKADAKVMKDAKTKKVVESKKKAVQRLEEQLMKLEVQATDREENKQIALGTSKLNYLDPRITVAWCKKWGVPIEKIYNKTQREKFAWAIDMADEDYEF

[5] = test system: multidrug resistant (CH^R C5) Chinese Hamster ovary cells; experiment: CHO Microtiter Cytotoxicity Assay, multidrug resistant; format: cell-based; conditions: Cricetulus griseus, CHRC5, 72 h, 3 days, XTT
Experimental: (§2) CHO Microtiter Cytotoxicity Assay
(§3) Chinese Hamster ovary cells are grown in Alpha MEM Medium with L-glutamine and nucleosides and containing 10% fetal bovine serum and 100 units per mL penicillin-streptomycin in 75 cm^2 canted neck tissue culture flasks. They are harvested from these flasks using 0.5% trypsin. Microtiter plates (96-well, sterile, flat bottom) (Corning 25860) are seeded with 1.6×10^3 wild-type (AUX-B1) Chinese Hamster ovary cells per well or 2×10^3 multidrug resistant (CH^R C5) Chinese Hamster ovary cells per well. The plates are incubated at 37° C., 5% CO2 overnight to allow the cells to attach. The outside wells of each plate are not used, due to evaporation during the incubation time. They are filled with medium and used as blanks. The next day, the medium is aspirated from the wells and 180 μL of fresh medium is added to each well. Compounds are diluted from stock solution in DMSO into fresh medium to a 10X concentration containing 2% DMSO. Twenty μL of this is then added to the 180 μL of fresh meduim in the wells. The plates are then incubated for another 3 days at 37° C., 5% CO2. […] The plate is then read on a UV Max plate reader, using wells without cells .(i.e., containing only 200 μL of medium and 50 μL of XTT/PMS solution) as a background control.

[6] = test system: L1210; experiment: Efficacy in mouse tumor models: L1210; format: in vivo; conditions: L1210 mouse model, dose 42 mg/kg ip
Experimental: as §1

[7] = test system: wild-type (AUX-B1) Chinese Hamster ovary cells; experiment: CHO Microtiter Cytotoxicity Assay, wild type; format: cell-based; conditions: Cricetulus griseus, AuxB1, 72 h, 3 days, XTT
Experimental: as §2, §3

[8] = test system: Lewis Lung; experiment: Efficacy in mouse tumor models: Lewis Lung; format: in vivo; conditions: Lewis Lung mouse model, dose 9 mg/kg ip
Experimental: as §1

[9] = test system: solid tumor cancers, particularly ovarian cancer and non-small cell lung carcinoma; conditions: humans; cited from earlier work

CC[C@@]1(O)C(=O)OCc2c1cc1n(c2=O)Cc2cc3ccccc3nc2-1 [Camptothecin]
% Inc. in Lifespan, Colon 26 ([1]; dose 4 mg/kg ip): 50%
toxicity [2]: unacceptable dose limiting toxicity, unpredictable toxicity
effect on topoisomerase II [3]: no effect on topoisomerase II
inhibition of topoisomerase I [4]: inhibit topoisomerase I

CC[C@@]1(O)C(=O)OCc2c1cc1n(c2=O)Cc2cc3c4c(ccc3nc2-1)OC(CN1CCOCC1)C4 (stereo partly drawn) [Formula III, (8S)-8-ethyl-1,2-dihydro-8-hydroxy-2(4-morpholinylmethyl)11H-furano [3,2-f]-pyrano[3',4':6,7]indolizino[1,2-b]quinoline-9,12(8H,14H)-dione]
IC50 [5]: 420 nM
% Inc. in Lifespan, Colon 26 ([1]; dose 20 mg/kg sc): 45%
% Inc. in Lifespan, L1210 [6]: 350%
IC50 [7]: 5.5 nM

CC[C@@]1(O)C(=O)OCc2c1cc1n(c2=O)Cc2cc3c4c(ccc3nc2-1)OC(CN(C)C)C4 (stereo partly drawn) [Formula IV, (8S)-2-[(dimethylamino)methyl]-8-ethyl-1,2-dihydro-8-hydroxy-11H-furano[3,2-f]-pyrano [3',4':6,7]indolizino[1,2-b]quinoline-9,12(8H,14H)-dione]
IC50 [5]: 1000 nM
% Inc. in Lifespan, Lewis Lung [8]: 67%
% Inc. in Lifespan, Colon 26 ([1]; dose 20 mg/kg sc): 32%
IC50 [7]: 18 nM

CC[C@@]1(O)C(=O)OCc2c1cc1n(c2=O)Cc2cc3c(CN(C)C)c(O)ccc3nc2-1 [Topotecan, 9-dimethylaminomethyl-10-hydroxycamptothecin, reference compound]
% Inc. in Lifespan, Colon 26 ([1]; dose 20 mg/kg sc): 45%
efficacy in clinical tests [9]: demonstrated efficacy against several solid tumor cancers, particularly ovarian cancer and non-small cell lung carcinoma

(S)-10-amino-4-ethyl-4-hydroxy-1H-pyrano[3',4':6,7]indolizino [1,2-b]quinoline-3,14(4H,12H)-dione [CPT-11]
toxicity [2]: adverse toxicity profile
